Key:
[1] = system: U-698-M; experiment: combination Emax (second highest fraction inhibited in the dose matrix, 72 h); higher = more inhibition; settings: B-Cell Non-Hodgkin's Lymphoma
How it was run: (§1)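 After 24 hours at 37°C and 5% CO2 in 1536-well plates, cells in DMEM/F12 or RPMI plus 10% FBS received two-drug dose matrices for 72 hours. Viability came from CellTiter-Glo 2.0 luminescence and was scaled as inhibition, anchored at 0 by vehicle wells and at 1 by blank wells. Combination Emax is taken as the second-highest inhibition in the matrix, and Bliss excess as the observed combination effect less EA + EB − EA·EB, with EA and EB the single-agent effects.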

[2] = system: U-698-M; experiment: Bliss excess, mean over the matrix (fraction); higher = more synergy; settings: U-[…], B-Cell Non-Hodgkin's Lymphoma
How it was run: as §1

[3] = first compound max 10 µM, partner max 10 µM, 7x7
[4] = first compound max 1 µM, partner max 10 µM, 7x7
[5] = first compound max 1 µM, partner max 3 µM, 7x7, may be a limit of the assay
[6] = first compound max 1 µM, partner max 3 µM, 7x7
[7] = first compound max 10 µM, partner max 1 µM, 7x7
[8] = first compound max 1 µM, partner max 1 µM, 7x7
[9] = first compound max 1 µM, partner max 1 µM
[10] = first compound max 0.3 µM, partner max 1 µM, 7x7
[11] = first compound max 10 µM, partner max 0.3 µM, 7x7
[12] = first compound max 1 µM, partner max 0.3 µM, 7x7
[13] = first compound max 10 µM, partner max 20 µM, 7x7
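Wherever Bliss excess, mean over the matrix is given: after 72 h of two-drug dosing.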

Compound: NC1(C(=O)N[C@@H](CCO)c2ccc(Cl)cc2)CCN(c2ncnc3[nH]ccc23)CC1 [Capivasertib] + Cn1cnc2c(F)c(Nc3ccc(Br)cc3Cl)c(C(=O)NOCCO)cc21 [Selumetinib]
- combination Emax [1, 3]: 0.45
- Bliss excess [2, 3]: -0.0253

Compound: CC1(C)CCC(CN2CCN(c3ccc(C(=O)NS(=O)(=O)c4ccc(NCC5CCOCC5)c([N+](=O)[O-])c4)c(Oc4cnc5[nH]ccc5c4)c3)CC2)=C(c2ccc(Cl)cc2)C1 [Venetoclax] + Cc1cc2ncnn2cc1Nc1ncc2c(n1)n(C1CCOCC1)c(=O)n2C [AZD7648]
- combination Emax [1, 4]: 0.57
- Bliss excess [2, 4]: 0.041

Compound: CN(CCO)CC[C@H](CSc1ccccc1)Nc1ccc(S(=O)(=O)NC(=O)c2ccc(N3CCC([C@@H](O)c4ccccc4-c4ccc(Cl)cc4)CC3)cc2)cc1S(=O)(=O)C(F)(F)F [AZD4320] + C[C@@H]1COCCN1C2=NC(=NC(=C2)C3(CC3)[S@](=N)(=O)C)C4=C5C=CNC5=NC=C4 [AZD6738]
- combination Emax [1, 4]: 0.773
- Bliss excess [2, 4]: -0.0427

Compound: Cc1c2c(nn1C)CSCc1cc(n(C)n1)CSc1cc(c3ccccc3c1)OCCCc1c(C(=O)O)n(C)c3c-2c(Cl)ccc13 [AZD5991] + C[C@@H](Nc1cc(F)cc(F)c1)c1cc(C(=O)N(C)C)cc2c(=O)cc(N3CCOCC3)oc12 [AZD8186]
- combination Emax [1, 5]: 1
- Bliss excess [2, 6]: -0.0258

Compound: Cc1cc2ncnn2cc1Nc1ncc2c(n1)n(C1CCOCC1)c(=O)n2C [AZD7648] + CN(C)CCCOc1ccc(-c2ccc3ncc4c(c3c2)n(C2CCOCC2)c(=O)n4C)cn1 [AZD0156]
- combination Emax [1, 7]: 0.488
- Bliss excess [2, 7]: 0.0015

Compound: C[C@@H](Oc1cc(-c2cnn(C3CCNCC3)c2)cnc1N)c1c(Cl)ccc(F)c1Cl [Crizotinib] + Cn1cnc2c(F)c(Nc3ccc(Br)cc3Cl)c(C(=O)NOCCO)cc21 [Selumetinib]
- combination Emax [1, 3]: 0.752
- Bliss excess [2, 3]: -0.0663

Compound: CN(CCO)CC[C@H](CSc1ccccc1)Nc1ccc(S(=O)(=O)NC(=O)c2ccc(N3CCC([C@@H](O)c4ccccc4-c4ccc(Cl)cc4)CC3)cc2)cc1S(=O)(=O)C(F)(F)F [AZD4320] + CN(C)CCCOc1ccc(-c2ccc3ncc4c(c3c2)n(C2CCOCC2)c(=O)n4C)cn1 [AZD0156]
- combination Emax [1, 8]: 0.183
- Bliss excess [2, 8]: -0.0291

Compound: COc1nnc2ccc(N3CCC(c4ccc(OCCN5CCN(C)C(=O)[C@H]5C)cc4)CC3)nn12 [AZD5153] + C[C@@H]1COCCN1C2=NC(=NC(=C2)C3(CC3)[S@](=N)(=O)C)C4=C5C=CNC5=NC=C4 [AZD6738]
- combination Emax [1, 4]: 0.912
- Bliss excess [2, 4]: -0.0616

Compound: COc1cccc(OCCCN)c1-c1cc(Nc2cnc(C#N)cn2)n[nH]1 [Prexasertib] + C=CCn1c(=O)c2cnc(Nc3ccc(N4CCN(C)CC4)cc3)nc2n1-c1cccc(C(C)(C)O)n1 [AZD1775]
- combination Emax ([1]; first compound max 1 µM, partner max 1 µM, may be a limit of the assay): 1
- Bliss excess [2, 9]: 0.0762

Compound: Cc1c2c(nn1C)CSCc1cc(n(C)n1)CSc1cc(c3ccccc3c1)OCCCc1c(C(=O)O)n(C)c3c-2c(Cl)ccc13 [AZD5991] + Cn1cnc2c(F)c(Nc3ccc(Br)cc3Cl)c(C(=O)NOCCO)cc21 [Selumetinib]
- combination Emax [1, 5]: 1
- Bliss excess [2, 6]: -0.0034

Compound: CC1(C)CCC(CN2CCN(c3ccc(C(=O)NS(=O)(=O)c4ccc(NCC5CCOCC5)c([N+](=O)[O-])c4)c(Oc4cnc5[nH]ccc5c4)c3)CC2)=C(c2ccc(Cl)cc2)C1 [Venetoclax] + CCN(CCO)CCCOc1ccc2c(Nc3cc(CC(=O)Nc4cccc(F)c4)[nH]n3)ncnc2c1 [AZD2811]
- combination Emax [1, 8]: 0.6
- Bliss excess [2, 8]: -0.0213

Compound: Cc1c2c(nn1C)CSCc1cc(n(C)n1)CSc1cc(c3ccccc3c1)OCCCc1c(C(=O)O)n(C)c3c-2c(Cl)ccc13 [AZD5991] + CC1(C)CCC(CN2CCN(c3ccc(C(=O)NS(=O)(=O)c4ccc(NCC5CCOCC5)c([N+](=O)[O-])c4)c(Oc4cnc5[nH]ccc5c4)c3)CC2)=C(c2ccc(Cl)cc2)C1 [Venetoclax]
- combination Emax ([1]; first compound max 1 µM, partner max 1 µM, 7x7, may be a limit of the assay): 1
- Bliss excess [2, 8]: -0.0069

Compound: CCc1c2c(nc3ccc(O)cc13)-c1cc3c(c(=O)n1C2)COC(=O)[C@]3(O)CC [SN-38] + CN(C)CCCOc1ccc(-c2ccc3ncc4c(c3c2)n(C2CCOCC2)c(=O)n4C)cn1 [AZD0156]
- combination Emax [1, 10]: 0.908
- Bliss excess [2, 10]: 0.0615

Compound: Cc1c2c(nn1C)CSCc1cc(n(C)n1)CSc1cc(c3ccccc3c1)OCCCc1c(C(=O)O)n(C)c3c-2c(Cl)ccc13 [AZD5991] + CC(=O)O[C@H]1C(=O)[C@@]2(C)[C@H]([C@H](OC(=O)c3ccccc3)[C@]3(O)C[C@H](OC(=O)[C@H](O)[C@@H](NC(=O)c4ccccc4)c4ccccc4)C(C)=C1C3(C)C)[C@]1(OC(C)=O)CO[C@@H]1C[C@@H]2O [Paclitaxel]
- combination Emax [1, 5]: 1
- Bliss excess [2, 6]: -0.0123

Compound: CN(C)CCCOc1ccc(-c2ccc3ncc4c(c3c2)n(C2CCOCC2)c(=O)n4C)cn1 [AZD0156] + CCN(CCO)CCCOc1ccc2c(Nc3cc(CC(=O)Nc4cccc(F)c4)[nH]n3)ncnc2c1 [AZD2811]
- combination Emax [1, 8]: 0.168
- Bliss excess [2, 8]: -0.014

Compound: N#Cc1cnc(Nc2cc(NC[C@H]3CNCCO3)c(C(F)(F)F)cn2)cn1 [SRA737] + CCc1c2c(nc3ccc(O)cc13)-c1cc3c(c(=O)n1C2)COC(=O)[C@]3(O)CC [SN-38]
- combination Emax [1, 11]: 0.963
- Bliss excess [2, 11]: -0.0229

Compound: CC1(C)CCC(CN2CCN(c3ccc(C(=O)NS(=O)(=O)c4ccc(NCC5CCOCC5)c([N+](=O)[O-])c4)c(Oc4cnc5[nH]ccc5c4)c3)CC2)=C(c2ccc(Cl)cc2)C1 [Venetoclax] + C=CCn1c(=O)c2cnc(Nc3ccc(N4CCN(C)CC4)cc3)nc2n1-c1cccc(C(C)(C)O)n1 [AZD1775]
- combination Emax [1, 9]: 0.978
- Bliss excess [2, 9]: 0.109

Compound: Cc1cc2ncnn2cc1Nc1ncc2c(n1)n(C1CCOCC1)c(=O)n2C [AZD7648] + O=C(c1cc(Cc2n[nH]c(=O)c3ccccc23)ccc1F)N1CCN(C(=O)C2CC2)CC1 [Olaparib]
- combination Emax [1, 3]: 0.343
- Bliss excess [2, 3]: -0.0409

Compound: C[C@@H](c1ccc2nccn2c1)n1nnc2ncc(-c3cnn(C)c3)nc21 [Savolitinib] + Cc1c2c(nn1C)CSCc1cc(n(C)n1)CSc1cc(c3ccccc3c1)OCCCc1c(C(=O)O)n(C)c3c-2c(Cl)ccc13 [AZD5991]
- combination Emax [1, 8]: 0.978
- Bliss excess [2, 8]: -0.0477

Compound: Cc1c2c(nn1C)CSCc1cc(n(C)n1)CSc1cc(c3ccccc3c1)OCCCc1c(C(=O)O)n(C)c3c-2c(Cl)ccc13 [AZD5991] + Nc1ccn([C@@H]2O[C@H](CO)[C@@H](O)C2(F)F)c(=O)n1 [Gemcitabine]
- combination Emax [1, 12]: 0.966
- Bliss excess [2, 12]: 0.0211

Compound: N#Cc1cnc(Nc2cc(NC[C@H]3CNCCO3)c(C(F)(F)F)cn2)cn1 [SRA737] + Nc1ccn([C@@H]2O[C@H](CO)[C@@H](O)C2(F)F)c(=O)n1 [Gemcitabine]
- combination Emax [1, 11]: 0.916
- Bliss excess [2, 11]: 0.111

Compound: N#Cc1cnc(Nc2cc(NC[C@H]3CNCCO3)c(C(F)(F)F)cn2)cn1 [SRA737] + O=c1[nH]cc(F)c(=O)[nH]1 [5-Fluorouracil]
- combination Emax [1, 13]: 0.798
- Bliss excess [2, 13]: -0.0673

Compound: CC1(C)CCC(CN2CCN(c3ccc(C(=O)NS(=O)(=O)c4ccc(NCC5CCOCC5)c([N+](=O)[O-])c4)c(Oc4cnc5[nH]ccc5c4)c3)CC2)=C(c2ccc(Cl)cc2)C1 [Venetoclax] + CN(C)CCCOc1ccc(-c2ccc3ncc4c(c3c2)n(C2CCOCC2)c(=O)n4C)cn1 [AZD0156]
- combination Emax [1, 8]: 0.72
- Bliss excess [2, 8]: 0.0133

Compound: CC1(C)CCC(CN2CCN(c3ccc(C(=O)NS(=O)(=O)c4ccc(NCC5CCOCC5)c([N+](=O)[O-])c4)c(Oc4cnc5[nH]ccc5c4)c3)CC2)=C(c2ccc(Cl)cc2)C1 [Venetoclax] + C[C@@H]1COCCN1C2=NC(=NC(=C2)C3(CC3)[S@](=N)(=O)C)C4=C5C=CNC5=NC=C4 [AZD6738]
- combination Emax [1, 4]: 0.86
- Bliss excess [2, 4]: -0.0392

From the supplement of paper PMC11061612
